According to patent US8927717B1, “Thiochromeno[2,3-c]quinolin-12-one derivatives, preparation method and application thereof” (National Defense Medical Center, priority 2014, dated 2015):
Read-outs that look alike come from different tables or passages of the source.

Assays:
DU-145 cell line = experiment: MTT assay for cell cytotoxicity; assay type: cell-based, human; details: DU-145 cells; 72 h; at least three independent experiments; read-out: MTT assay (IC50 ± SD) DU-145
Protocol: (§1) All of synthesis compounds were evaluated cell cytotoxicity by using MTT colorimetric assay on PC-3 and DU-145 cell lines. DU-145 and PC-3 are human hormone-refractory (androgen-independent) prostatic cancer cell lines from American Type Culture Collection (HTB-81™, ATCC, Rockville, Md.)^125 and Bioresource Collection and Research Center (60122, BCRC, Taiwan)^126, respectively. Two of the “classical” cell lines were cultivated in RPMI-1640 medium supplemented with 5% fetal bovine serum (v/v), 100 U/mL penicillin, and […] streptomycin. Approximately 2×10^3 cells were seeded into each well of a 96-well plate and incubated in 5% CO2 at 37° C. for 24 h. To evaluate the in vitro cytotoxicity, all the synthetic compounds were dissolved in DMSO, prepared immediately before the experiments and diluted into the complete medium before being added to each well of a 96-well plate. Each compound was then added to the culture medium for designated various concentrations (0.15, 0.5, 1.5, 5, 15 μM). After 72 h, an amount of 100 μL of MTT (1 mg/mL) was added to each well, and the samples were incubated at 37° C. for 4 h. After removing the MTT solution, 100 μL of DMSO was added to each well and incubated at 37° C. for another 20 mins. The absorbency at 560 nm was measured by using an ELISA reader.
(§2) Results are expressed as mean values of at least three independent experiments. The IC50 values of testing compounds were described in Table 1.

PC-3 cell line = experiment: MTT assay for cell cytotoxicity; assay type: cell-based, human; details: PC-3 cells, 72 h, at least three independent experiments, read-out: MTT assay (IC50 ± SD) PC-3
Protocol: as §1, §2

TOP I (Topoisomerase I) [1] = biological target: T1, TOP I (Topoisomerase I) (Homo sapiens, UniProt P11387); experiment: TOP I mediated supercoiled DNA relaxation assay; assay type: biochemical; details: primary assay at 25 and/or 50 μM
T1 construct: purchased TopoGEN TG2005H
T1 sequence (P11387 1-765): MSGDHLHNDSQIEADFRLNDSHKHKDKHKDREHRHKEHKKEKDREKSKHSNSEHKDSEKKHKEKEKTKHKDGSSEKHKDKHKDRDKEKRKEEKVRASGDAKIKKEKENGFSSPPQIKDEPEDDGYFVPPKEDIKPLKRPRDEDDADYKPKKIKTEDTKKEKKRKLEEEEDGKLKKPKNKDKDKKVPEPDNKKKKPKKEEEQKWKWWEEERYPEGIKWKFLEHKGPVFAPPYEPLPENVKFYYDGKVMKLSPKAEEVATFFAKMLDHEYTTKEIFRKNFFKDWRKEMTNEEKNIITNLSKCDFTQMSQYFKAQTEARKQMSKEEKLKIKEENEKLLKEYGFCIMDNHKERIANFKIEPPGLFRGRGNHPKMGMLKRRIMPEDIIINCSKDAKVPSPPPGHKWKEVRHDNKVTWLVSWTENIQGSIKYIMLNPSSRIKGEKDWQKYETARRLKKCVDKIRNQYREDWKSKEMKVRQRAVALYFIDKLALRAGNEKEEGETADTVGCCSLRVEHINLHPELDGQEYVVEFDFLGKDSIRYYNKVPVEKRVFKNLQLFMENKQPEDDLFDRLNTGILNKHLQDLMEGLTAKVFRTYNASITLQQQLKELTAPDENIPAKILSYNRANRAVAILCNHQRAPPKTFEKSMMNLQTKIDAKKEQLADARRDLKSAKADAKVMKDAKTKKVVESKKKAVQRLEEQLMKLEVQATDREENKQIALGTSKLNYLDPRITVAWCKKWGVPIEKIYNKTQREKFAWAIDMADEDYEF
Protocol: According to the cell cytotoxicity, compounds 5, 7, 8, 16, 19, N2, N7, N8, N9, N14-N19, and N25 were also selected for primary TOP I and II activities assays at 25 and/or 50 μM (FIG. 2-4).

[2] = biological target: T2, TOP II (Topoisomerase II) (Homo sapiens, UniProt P11388); experiment: TOP II-catalyzed relaxation of plasmid DNA assay; assay type: biochemical
T2 construct: purchased TopoGEN TG-2000H-1
Protocol: We also performed TOP II-catalyzed relaxation of plasmid DNA assays (FIG. 5-7) to evaluate if compounds could inhibit TOP II. […] The IC50 value of compounds 7, N7, N8, N14, N15, N18, and N19 were about 10, 10, 1, 10, 5, 1, and 1 μM, respectively (detect by TopoGEN TG2005H, TG-2000H-1).

TOP I (Topoisomerase I) [3] = biological target: T1, TOP I (Topoisomerase I); experiment: TOP I mediated supercoiled DNA relaxation assay; assay type: biochemical; details: five different concentrations; TopoGEN TG2005H, TG-2000H-1

T2 sequence (P11388 whole entry): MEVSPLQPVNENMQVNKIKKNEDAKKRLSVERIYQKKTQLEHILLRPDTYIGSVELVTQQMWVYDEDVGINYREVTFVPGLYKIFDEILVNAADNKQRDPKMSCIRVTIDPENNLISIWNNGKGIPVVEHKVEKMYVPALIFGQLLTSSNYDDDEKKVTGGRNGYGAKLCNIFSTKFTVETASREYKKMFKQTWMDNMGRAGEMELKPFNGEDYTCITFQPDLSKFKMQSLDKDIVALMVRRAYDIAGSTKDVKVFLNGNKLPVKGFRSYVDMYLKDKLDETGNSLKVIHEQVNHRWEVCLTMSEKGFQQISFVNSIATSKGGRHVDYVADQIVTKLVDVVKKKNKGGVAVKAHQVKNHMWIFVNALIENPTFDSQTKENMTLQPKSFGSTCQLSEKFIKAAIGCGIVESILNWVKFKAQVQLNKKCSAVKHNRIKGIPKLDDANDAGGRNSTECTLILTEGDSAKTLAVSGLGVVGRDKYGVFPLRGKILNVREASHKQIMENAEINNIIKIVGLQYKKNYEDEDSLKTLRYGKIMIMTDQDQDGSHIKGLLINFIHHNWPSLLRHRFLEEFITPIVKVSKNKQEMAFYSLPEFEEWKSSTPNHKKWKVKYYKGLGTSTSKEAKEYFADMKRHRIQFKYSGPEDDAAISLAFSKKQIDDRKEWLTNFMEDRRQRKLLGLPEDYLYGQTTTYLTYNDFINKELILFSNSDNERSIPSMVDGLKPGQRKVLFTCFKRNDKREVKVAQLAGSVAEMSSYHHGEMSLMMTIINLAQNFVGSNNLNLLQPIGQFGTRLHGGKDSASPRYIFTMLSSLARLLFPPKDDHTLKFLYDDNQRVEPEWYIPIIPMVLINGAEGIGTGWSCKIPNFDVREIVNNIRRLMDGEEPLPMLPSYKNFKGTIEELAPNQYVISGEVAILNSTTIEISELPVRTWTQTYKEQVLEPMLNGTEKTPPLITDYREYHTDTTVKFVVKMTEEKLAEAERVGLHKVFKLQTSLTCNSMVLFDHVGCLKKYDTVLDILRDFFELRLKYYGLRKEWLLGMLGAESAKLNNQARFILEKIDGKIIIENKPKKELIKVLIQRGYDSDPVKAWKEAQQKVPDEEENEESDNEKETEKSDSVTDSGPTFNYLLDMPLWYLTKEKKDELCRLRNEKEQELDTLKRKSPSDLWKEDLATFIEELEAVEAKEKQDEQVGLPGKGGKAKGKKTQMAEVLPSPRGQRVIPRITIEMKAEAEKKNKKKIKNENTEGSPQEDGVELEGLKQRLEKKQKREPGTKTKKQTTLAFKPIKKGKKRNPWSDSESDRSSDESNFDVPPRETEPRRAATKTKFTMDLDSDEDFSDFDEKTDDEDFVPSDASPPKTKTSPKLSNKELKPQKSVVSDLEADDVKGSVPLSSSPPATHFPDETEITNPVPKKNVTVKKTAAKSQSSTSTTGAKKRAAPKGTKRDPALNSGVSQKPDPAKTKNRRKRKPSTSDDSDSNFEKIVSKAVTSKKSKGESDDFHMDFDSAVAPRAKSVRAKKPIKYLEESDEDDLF

| Compound | IC50 (DU-145 cell line) | IC50 (PC-3 cell line) | also measured |
| --- | --- | --- | --- |
| Nc1ccc(CCNc2nc3ccccc3c3c(=O)c4cc(Cl)ccc4sc23)cc1 [Compound N32, 6-((4-Aminophenethyl)amino)-10-chloro-12H-thiochromeno[2,3c]quinolin-12-one] | 13.6 ± 1.39 µM | 10.1 ± 0.94 µM | – |
| O=c1c2cc(Cl)ccc2sc2c(NCCCCCO)nc3ccccc3c12 [Compound N11, 10-Chloro-6-(5-pentanolamino)-12H-thiochromeno[2,3-c]quinolin-12-one] | 4.95 ± 0.58 µM | 8.38 ± 3.39 µM | – |
| COc1cc([C@@H]2c3cc4c(cc3[C@@H](O[C@@H]3O[C@@H]5CO[C@@H](C)O[C@H]5[C@H](O)[C@H]3O)[C@H]3COC(=O)[C@H]23)OCO4)cc(OC)c1O [Etoposide (VP-16), Etoposide, reference compound] | – | – | IC50 (PC-3 cell line; Homo sapiens): 4.33 ± 0.86 µM |
| O=c1c2cc(Cl)ccc2sc2c(N3CCNCC3)nc3ccccc3c12 [Compound 7, 10-Chloro-6-(piperazin-1-yl)-12H-thiochromeno[2,3-c]quinolin-12-one] | – | – | inhibitory effect in TOP I activity assay compared with CPT (TOP I (Topoisomerase I) [1]): more potent inhibitory effects than CPT; IC50 ([2]; five different concentrations, TopoGEN TG2005H, TG-2000H-1, read-out: IC50 value, TOP II mediated supercoiled DNA relaxation): ~10 µM; inhibitory effect in TOP II relaxation assay compared with VP-16 ([2]; primary assay at 25 and/or 50 μM): more potent inhibitory effects than the positive agent VP-16; melting point: 211 to 213 °C; IC50 (TOP I (Topoisomerase I) [3]): ~10 µM |
| O=c1c2cc(Cl)ccc2sc2c(NCCCO)nc3ccccc3c12 [Compound N10, 10-Chloro-6-(3-propanolamino)-12H-thiochromeno[2,3-c]quinolin-12-one] | 5.94 ± 2.03 µM | 6.31 ± 4.11 µM | – |
